Measurements: the supplement of paper PMC10307832

Assays:
Test in all cases: relative viability (nuclei count vs DMSO), 5 days (fraction); higher = more cells survive
[1] = compound: CN1CCN(CC1)C2=CC(=C(C=C2)NC3=NC(=C(S3)C(=O)C4=C(C=CC=C4Cl)Cl)N)OC [XMD14-99] + Nc1nc2[nH]cc(CCc3ccc(C(=O)N[C@@H](CCC(=O)O)C(=O)O)cc3)c2c(=O)[nH]1 [Pemetrexed] (partner 0.2 µM)
Summary of the method: (§1)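 Relative viability is defined as nuclei in treated wells over nuclei in vehicle wells. Duplicate plates were run and medians reported. Lung cancer cell lines in 1536-well plates were dosed by pin tool one day after seeding, with one drug or with a fixed anchor-drug dose plus five library-drug doses (not always all listed) in √10 steps, and nuclei were counted after 5 days.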

[2] = compound: N[C@@H]1CCCN(c2c(/C=C3\SC(=O)NC3=O)cccc2-c2ccccc2)C1 [AZD1208] + COc1cc2c(Oc3ccc(NC(=O)C4(C(=O)Nc5ccc(F)cc5)CC4)cc3F)ccnc2cc1OCCCN1CCOCC1 [Foretinib] (partner 0.25 µM)
Summary of the method: as §1

[3] = compound: N[C@@H]1CCCN(c2c(/C=C3\SC(=O)NC3=O)cccc2-c2ccccc2)C1 [AZD1208] + Cc1cc(Nc2cc(N3CCN(C)CC3)nc(Sc3ccc(NC(=O)C4CC4)cc3)n2)n[nH]1 [Tozasertib] (partner 0.1 µM)
Summary of the method: as §1

[4] = compound: N[C@@H]1CCCN(c2c(/C=C3\SC(=O)NC3=O)cccc2-c2ccccc2)C1 [AZD1208] + Nc1nc2[nH]cc(CCc3ccc(C(=O)N[C@@H](CCC(=O)O)C(=O)O)cc3)c2c(=O)[nH]1 [Pemetrexed] (partner 0.2 µM)
Summary of the method: as §1

Cell Line	relative viability ([1]; first compound 0.08 µM)	relative viability ([1]; first compound 0.8 µM)	relative viability ([1]; first compound 2.53 µM)	relative viability ([1]; first compound 8 µM)	relative viability ([2]; first compound 0.08 µM)	relative viability ([2]; first compound 0.253 µM)	relative viability ([2]; first compound 0.8 µM)	relative viability ([2]; first compound 2.53 µM)	relative viability ([2]; first compound 8 µM)	relative viability ([3]; first compound 0.08 µM)	relative viability ([3]; first compound 0.253 µM)	relative viability ([3]; first compound 0.8 µM)	relative viability ([3]; first compound 2.53 µM)	relative viability ([3]; first compound 8 µM)	relative viability ([4]; first compound 0.08 µM)	relative viability ([4]; first compound 0.253 µM)	relative viability ([4]; first compound 0.8 µM)	relative viability ([4]; first compound 2.53 µM)	relative viability ([4]; first compound 8 µM)
LCLC-97TM1	0.19	0.173	0.198	0.167	0.914	0.945	1.03	0.891	0.8	0.223	0.23	0.175	0.135	0.132	0.188	0.176	0.125	0.175	0.171
NCI-H838	0.253	0.226	0.255	0.198	1.03	1	0.939	1.02	0.946	0.277	0.261	0.267	0.268	0.264	0.239	0.26	0.243	0.26	0.228
NCI-H1355	1.09	1.06	0.945	0.896	0.973	1	0.878	0.84	0.784	0.539	0.474	0.407	0.389	0.308	1.1	0.944	0.934	1.04	1.04
HOP-62	0.368	0.364	0.36	0.331	1.03	1.16	1.02	1.03	1.06	0.372	0.302	0.372	0.287	0.263	0.298	0.345	0.28	0.289	0.269
NCI-H2087	0.681	0.644	0.597	0.611	1.17	1.26	0.89	0.977	0.988	0.245	0.2	0.264	0.209	0.212	0.664	0.713	0.475	0.649	0.627
